Data reported in ChEMBL document CHEMBL1201862, “PubChem BioAssay data set” (2004).
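A five-concentration, 48-hour dose response in 96-well plates underlies each endpoint, interpolated linearly between surrounding concentrations. GI50: concentration for 50% inhibition of growth.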 Active and inactive are the calls of the source. No stated cut-off is given here; in the data, active = GI50 up to about 1.1 µM and inactive = higher.

Experiments:
Assay in all cases: NCI tumour cell line growth inhibition, 48 h
786-0 = test system: 786-0
A498 = test system: A498
A549 = test system: A549
ACHN = test system: ACHN
BT-549 = test system: BT-549
CAKI-1 = test system: CAKI-1
CCRF-CEM = test system: CCRF-CEM
COLO 205 = test system: COLO 205
DU-145 = test system: DU-145
EKVX = test system: EKVX
HCC 2998 = test system: HCC 2998
HCT-116 = test system: HCT-116
HCT-15 = test system: HCT-15
HL-60 = test system: HL-60
HOP-62 = test system: HOP-62
HOP-92 = test system: HOP-92
HT-29 = test system: HT-29
Hs-578T = test system: Hs-578T
IGROV-1 = test system: IGROV-1
K562 = test system: K562
KM12 = test system: KM12
LOX IMVI = test system: LOX IMVI
M14 = test system: M14
MCF7 = test system: MCF7
MDA-MB-231 = test system: MDA-MB-231
MDA-MB-435 = test system: MDA-MB-435
MDA-N = test system: MDA-N
MOLT-4 = test system: MOLT-4
Malme-3M = test system: Malme-3M
NCI-H226 = test system: NCI-H226
NCI-H23 = test system: NCI-H23
NCI-H460 = test system: NCI-H460
NCI-H522 = test system: NCI-H522
NCI/ADR-RES = test system: NCI/ADR-RES
OVCAR-3 = test system: OVCAR-3
OVCAR-4 = test system: OVCAR-4
OVCAR-5 = test system: OVCAR-5
OVCAR-8 = test system: OVCAR-8
PC-3 = test system: PC-3
RPMI-8226 = test system: RPMI-8226
RXF 393 = test system: RXF 393
SF-268 = test system: SF-268
SF-295 = test system: SF-295
SF-539 = test system: SF-539
SK-MEL-28 = test system: SK-MEL-28
SK-MEL-2 = test system: SK-MEL-2
SK-MEL-5 = test system: SK-MEL-5
SK-OV-3 = test system: SK-OV-3
SN12C = test system: SN12C
SNB-19 = test system: SNB-19
SNB-75 = test system: SNB-75
SR = test system: SR
SW-620 = test system: SW-620
T47D = test system: T47D
TK-10 = test system: TK-10
U-251 = test system: U-251
UACC-257 = test system: UACC-257
UACC-62 = test system: UACC-62
UO-31 = test system: UO-31
DMS-114 = test system: DMS-114
KM-20L2 = test system: KM-20L2
LXFL 529 = test system: LXFL 529
M19-MEL = test system: M19-MEL
SNB-78 = test system: SNB-78
DLD-1 = test system: DLD-1
DMS-273 = test system: DMS-273

CC(=O)N1NC(c2ccccc2)=NC(=O)C1c1cc(C)c(O)c(C)c1 (configuration not stated)
GI50 (786-0): 17.3 µM (inactive) | GI50 (A498): 28.3 µM (inactive) | GI50 (A549): 24.4 µM (inactive) | GI50 (ACHN): 20.7 µM (inactive) | GI50 (BT-549): 23 µM (inactive) | GI50 (CAKI-1): > 100 µM (inactive) | GI50 (CCRF-CEM): > 100 µM (inactive) | GI50 (COLO 205): > 100 µM (inactive) | GI50 (DU-145): 22.7 µM (inactive) | GI50 (EKVX): 34 µM (inactive) | GI50 (HCC 2998): 20 µM (inactive) | GI50 (HCT-116): 21.2 µM (inactive) | GI50 (HCT-15): 40 µM | GI50 (HL-60): > 100 µM (inactive) | GI50 (HOP-62): 16.2 µM (inactive) | GI50 (HOP-92): 19.8 µM (inactive) | GI50 (HT-29): 72.4 µM (inactive) | GI50 (Hs-578T): 29.8 µM (inactive) | GI50 (IGROV-1): 26.9 µM (inactive) | GI50 (K562): > 100 µM (inactive) | GI50 (KM12): 36 µM (inactive) | GI50 (LOX IMVI): 36.3 µM (inactive) | GI50 (M14): 71.9 µM (inactive) | GI50 (MCF7): 21.2 µM (inactive) | GI50 (MDA-MB-231): 21.7 µM (inactive) | GI50 (MDA-MB-435): 64.4 µM (inactive) | GI50 (MDA-N): 54.6 µM (inactive) | GI50 (MOLT-4): > 100 µM (inactive) | GI50 (Malme-3M): 17.7 µM (inactive) | GI50 (NCI-H226): 23.9 µM (inactive) | GI50 (NCI-H23): 24 µM (inactive) | GI50 (NCI-H460): 31.1 µM (inactive) | GI50 (NCI-H522): 17.8 µM (inactive) | GI50 (NCI/ADR-RES): 21.9 µM (inactive) | GI50 (OVCAR-3): 19.2 µM (inactive) | GI50 (OVCAR-4): 19.8 µM (inactive) | GI50 (OVCAR-5): 36.2 µM (inactive) | GI50 (OVCAR-8): 17.6 µM (inactive) | GI50 (PC-3): 27.8 µM (inactive) | GI50 (RPMI-8226): 52.7 µM (inactive) | GI50 (RXF 393): 17.5 µM (inactive) | GI50 (SF-268): 16.9 µM (inactive) | GI50 (SF-295): 19.1 µM (inactive) | GI50 (SF-539): 20.4 µM (inactive) | GI50 (SK-MEL-28): 54.6 µM (inactive) | GI50 (SK-MEL-2): 28.1 µM (inactive) | GI50 (SK-MEL-5): 20.3 µM (inactive) | GI50 (SK-OV-3): 18.7 µM (inactive) | GI50 (SN12C): 27.5 µM (inactive) | GI50 (SNB-19): 21.2 µM (inactive) | GI50 (SNB-75): 19.9 µM (inactive) | GI50 (SR): 49.3 µM (inactive) | GI50 (SW-620): 44.4 µM (inactive) | GI50 (T47D): 22.4 µM (inactive) | GI50 (TK-10): 20.6 µM (inactive) | GI50 (U-251): 19.2 µM (inactive) | GI50 (UACC-257): 31.2 µM (inactive) | GI50 (UACC-62): 20.3 µM (inactive) | GI50 (UO-31): 21.7 µM (inactive)

COC(=O)C(Cc1ccccc1)/N=C/c1c(O)c(O)c(C(C)C)c2cc(C)c(-c3c(C)cc4c(C(C)C)c(O)c(O)c(/C=N/C(Cc5ccccc5)C(=O)OC)c4c3O)c(O)c12 (configuration not stated)
GI50 (ACHN): 32.1 µM (inactive) | GI50 (CCRF-CEM): 7.82 µM (inactive) | GI50 (COLO 205): 30.3 µM (inactive) | GI50 (DMS-114): > 10 µM (inactive) | GI50 (HCT-116): > 10 µM (inactive) | GI50 (HL-60): 18.9 µM (inactive) | GI50 (HOP-62): 31.8 µM (inactive) | GI50 (HOP-92): 23.8 µM (inactive) | GI50 (HT-29): 17.6 µM (inactive) | GI50 (IGROV-1): 28.7 µM (inactive) | GI50 (K562): 18.7 µM (inactive) | GI50 (KM-20L2): 20 µM (inactive) | GI50 (KM12): 16.1 µM (inactive) | GI50 (LXFL 529): 18 µM (inactive) | GI50 (M14): > 10 µM (inactive) | GI50 (M19-MEL): 36.8 µM (inactive) | GI50 (MOLT-4): 2.38 µM (inactive) | GI50 (Malme-3M): 40.6 µM (inactive) | GI50 (NCI-H23): 26.4 µM (inactive) | GI50 (NCI-H460): 23 µM (inactive) | GI50 (NCI-H522): 21.6 µM (inactive) | GI50 (OVCAR-3): 17 µM (inactive) | GI50 (OVCAR-4): 21.3 µM (inactive) | GI50 (OVCAR-5): 15.5 µM (inactive) | GI50 (RPMI-8226): 22.4 µM (inactive) | GI50 (RXF 393): 15 µM (inactive) | GI50 (SF-268): 29.5 µM (inactive) | GI50 (SF-295): 15.8 µM (inactive) | GI50 (SF-539): 17 µM (inactive) | GI50 (SK-MEL-28): 28.8 µM (inactive) | GI50 (SK-MEL-2): 20.9 µM (inactive) | GI50 (SK-OV-3): 23.7 µM (inactive) | GI50 (SNB-19): 31.8 µM (inactive) | GI50 (SNB-75): 67.9 µM (inactive) | GI50 (SNB-78): 6.21 µM (inactive) | GI50 (SR): 2.36 µM (inactive) | GI50 (U-251): 17.3 µM (inactive) | GI50 (UACC-257): 21.6 µM (inactive) | GI50 (UACC-62): 22.5 µM (inactive) | GI50 (UO-31): 22.3 µM (inactive)

COc1ccc(/N=c2\ssc3c(=S)ssc23)cc1
GI50 (786-0): 34.1 µM (inactive) | GI50 (A549): 31.1 µM (inactive) | GI50 (ACHN): 23.8 µM (inactive) | GI50 (CAKI-1): 91.4 µM (inactive) | GI50 (CCRF-CEM): 3.68 µM (inactive) | GI50 (DLD-1): 15.5 µM (inactive) | GI50 (DMS-114): 0.959 µM (active) | GI50 (DMS-273): 26.4 µM (inactive) | GI50 (HCC 2998): 37.2 µM (inactive) | GI50 (HCT-116): 26 µM (inactive) | GI50 (HCT-15): 18.3 µM | GI50 (HL-60): 4.09 µM (inactive) | GI50 (HOP-62): > 100 µM (inactive) | GI50 (HOP-92): 15.5 µM (inactive) | GI50 (IGROV-1): 5.94 µM (inactive) | GI50 (K562): 3.99 µM (inactive) | GI50 (KM12): 62.7 µM (inactive) | GI50 (LOX IMVI): 15.7 µM (inactive) | GI50 (LXFL 529): 14.8 µM (inactive) | GI50 (M14): 20 µM (inactive) | GI50 (M19-MEL): 30.2 µM (inactive) | GI50 (MOLT-4): 3.72 µM (inactive) | GI50 (Malme-3M): 34.9 µM (inactive) | GI50 (NCI-H226): > 100 µM (inactive) | GI50 (NCI-H23): 34.5 µM (inactive) | GI50 (NCI-H522): 13.9 µM (inactive) | GI50 (OVCAR-3): 25.2 µM (inactive) | GI50 (OVCAR-4): 34.9 µM (inactive) | GI50 (OVCAR-5): 30.2 µM (inactive) | GI50 (OVCAR-8): 17 µM (inactive) | GI50 (RPMI-8226): 9.91 µM (inactive) | GI50 (RXF 393): 21.2 µM (inactive) | GI50 (SF-268): 35.7 µM (inactive) | GI50 (SF-295): 53.3 µM (inactive) | GI50 (SF-539): 27.4 µM (inactive) | GI50 (SK-MEL-28): 25.3 µM (inactive) | GI50 (SK-MEL-2): 60 µM (inactive) | GI50 (SK-MEL-5): 19.4 µM (inactive) | GI50 (SK-OV-3): > 100 µM (inactive) | GI50 (SN12C): 37.8 µM (inactive) | GI50 (SNB-75): 19.4 µM (inactive) | GI50 (SNB-78): 34.2 µM (inactive) | GI50 (SR): 3.61 µM (inactive) | GI50 (SW-620): 15.3 µM (inactive) | GI50 (TK-10): 57.9 µM (inactive) | GI50 (U-251): 28.4 µM (inactive) | GI50 (UACC-257): > 10 µM (inactive) | GI50 (UACC-62): 20.2 µM (inactive)
